The values that follow are results of earlier work, collected in patent publication US20130004563A1, “MULTIP[…]-ADENOSYLMETHIONINE COMPOSITIONS AND RELATED METHODS” (priority 2011, published 2013).

Assay in data set [1]: not given
The source holds these as a separate data set.

In the case of S-adenosyl-L-methionine [SAMe], the SAMe bioavailability entry (enteric-coated single unit tablets, compared with immediate release formulations) is listed as “higher”. Further, where the note is “in the body, single dose”, the half-life entry was “approximately 6 hours”. Also, the stability in vitro entry in data set [1] is “relatively unstable”.
